According to article PMC11457037 (Journal of medicinal chemistry, 2023):

What follows are compounds tested against T1, EV-D68 2A^pro (Enterovirus D68, UniProt A0A097BW19) (assay: FRET-based enzymatic assay). Settings: not given.
Format: biochemical
`CCC[C@H](NC(=O)[C@@H]1[C@H]2CCC[C@H]2CN1C(=O)[C@@H](NC(=O)OCc1ccccc1)C(C)(C)C)C(=O)C(=O)NC1CC1` [Jun7426, Benzyl ((S)-1-((1S,3aR,6aS)-1-(((S)-1-(cyclopropylamino)-1,2-dioxohexan-3-yl)carbamoyl)hexahydrocyclopenta[c]pyrrol-2(1H)-yl)-3,3-dimethyl-1-oxobutan-2-yl)carbamate] was tested, and the “enzymatic inhibition, comparison in words” value (shortened to “enzymatic inhibition”) was “reduced enzymatic inhibition and antiviral activity compared to telaprevir”. `CC(C)(C)[C@H](NC(=O)CC12CC3CC(CC(C3)C1)C2)C(=O)N1C[C@@H]2CCC[C@@H]2[C@H]1C(=O)N[C@@H](Cc1c[nH]c2ccccc12)C(=O)C(=O)NC1CC1` [Jun11862, (1S,3aR,6aS)-2-((S)-2-(2-((3S,5S,7S)-adamantan-1-yl)acetamido)-3,3-dimethylbutanoyl)-N-((S)-4-(cyclopropylamino)-1-(1H-indol-3-yl)-3,4-dioxobutan-2-yl)octahydrocyclopenta[c]pyrrole-1-carboxamide] was tested, and the “enzymatic inhibition” value was “comparable enzymatic inhibition and antiviral activity as Jun11385”. For `CC(C)(C)[C@H](NC(=O)CC12CC3CC(CC(C3)C1)C2)C(=O)N1C[C@@H]2CCC[C@@H]2[C@H]1C(=O)N[C@@H](Cc1ccc(F)cc1)C(=O)C(=O)NC1CC1` [Jun11763, (1S,3aR,6aS)-2-((S)-2-(2-((3S,5S,7S)-adamantan-1-yl)acetamido)-3,3-dimethylbutanoyl)-N-((S)-4-(cyclopropylamino)-1-(4-fluorophenyl)-3,4-dioxobutan-2-yl)octahydrocyclo-penta[c]pyrrole-1-carboxamide], the “enzymatic inhibition” value was “comparable enzymatic inhibition and antiviral activity as Jun11385”. `CCC[C@H](NC(=O)[C@@H]1[C@H]2CCC[C@H]2CN1C(=O)[C@@H](NC(=O)/C=C/c1ccccc1)C(C)(C)C)C(=O)C(=O)NC1CC1` [Jun8813, (1S,3aR,6aS)-2-((S)-2-cinnamamido-3,3-dimethylbutanoyl)-N-((S)-1-(cyclopropylamino)-1,2-dioxohexan-3-yl)octahydrocyclopenta[c]pyrrole-1-carboxamide] was tested, and the “enzymatic inhibition” value was “reduced enzymatic inhibition and antiviral activity compared to telaprevir”. In the case of `CCC[C@H](NC(=O)[C@@H]1[C@H]2CCC[C@H]2CN1C(=O)[C@@H](NC(=O)NC12CC3CC(CC(C3)C1)C2)C(C)(C)C)C(=O)C(=O)NC1CC1` [Jun1023, (1S)-2-((S)-2-(3-((3R,5R,7R)-adamantan-1-yl)ureido)-3,3-dimethylbutanoyl)-N-((S)-1-(cyclopropylamino)-1,2-dioxohexan-3-yl)octahydrocyclopenta[c]pyrrole-1-carboxamide], the “enzymatic inhibition” value is reported as “reduced enzymatic inhibition”. `CC(C)(C)[C@H](NC(=O)CC12CC3CC(CC(C3)C1)C2)C(=O)N1C[C@@H]2CCC[C@@H]2[C@H]1C(=O)N[C@H](C(=O)C(=O)NC1CC1)c1ccc(F)cc1` [Jun11861, (1S,3aR,6aS)-2-((S)-2-(2-((3S,5S,7S)-adamantan-1-yl)acetamido)-3,3-dimethylbutanoyl)-N-((S)-3-(cyclopropylamino)-1-(4-fluorophenyl)-2,3-dioxopropyl)octahydrocyclopenta[c]pyrrole-1-carboxamide] was tested, and the “enzymatic inhibition” value was “less active”. For `CCC[C@H](NC(=O)[C@@H]1[C@H]2CCC[C@H]2CN1C(=O)[C@@H](NC(=O)Cc1ccccc1)C(C)(C)C)C(=O)C(=O)NC1CC1` [Jun8681, (1S,3aR,6aS)-N-((S)-1-(cyclopropylamino)-1,2-dioxohexan-3-yl)-2-((S)-3,3-dimethyl-2-(2-phenylacetamido)butanoyl)octahydrocyclopenta[c]pyrrole-1-carboxamide], the “enzymatic inhibition” value was “reduced enzymatic inhibition and antiviral activity compared to telaprevir”. In the case of `CC(C)(C)[C@H](NC(=O)CC12CC3CC(CC(C3)C1)C2)C(=O)N1C[C@@H]2CCC[C@@H]2[C@H]1C(=O)N[C@H](C(=O)C(=O)NC1CC1)c1ccccc1` [Jun11817, (1S,3aR,6aS)-2-((S)-2-(2-((3S,5S,7S)-adamantan-1-yl)acetamido)-3,3-dimethylbutanoyl)-N-((S)-3-(cyclopropylamino)-2,3-dioxo-1-phenylpropyl)octahydrocyclopenta[c]pyrrole-1-carboxamide], the “enzymatic inhibition” value is reported as “less active”. With `CC(C)(C)[C@H](NC(=O)CC12CC3CC(CC(C3)C1)C2)C(=O)N1C[C@@H]2CCC[C@@H]2[C@H]1C(=O)NC1(C(=O)C(=O)NC2CC2)CCCCC1` [Jun11805, (1S,3aR,6aS)-2-((S)-2-(2-((3S,5S,7S)-adamantan-1-yl)acetamido)-3,3-dimethylbutanoyl)-N-(1-(2-(cyclopropylamino)-2-oxoacetyl)cyclohexyl)octahydrocyclopenta[c]pyrrole-1-carboxamide] the “enzymatic inhibition” value was “less active compared to Jun11762”. In the case of `CC(C)(C)[C@H](NC(=O)CC12CC3CC(CC(C3)C1)C2)C(=O)N1C[C@@H]2CCC[C@@H]2[C@H]1C(=O)NC1(C(=O)C(=O)NC2CC2)CCC1` [Jun11806, (1S,3aR,6aS)-2-((S)-2-(2-((3S,5S,7S)-adamantan-1-yl)acetamido)-3,3-dimethylbutanoyl)-N-(1-(2-(cyclopropylamino)-2 oxoacetyl)cyclobutyl)octahydrocyclopenta[c]pyrrole-1-carboxamide], the “enzymatic inhibition” value is reported as “less active compared to Jun11762”. In the case of `CC(C)(C)[C@H](NC(=O)CC12CC3CC(CC(C3)C1)C2)C(=O)N1C[C@@H]2CCC[C@@H]2[C@H]1C(=O)N[C@H](C(=O)C(=O)NC1CC1)C1CCCC1` [Jun11808, (1S,3aR,6aS)-2-((S)-2-(2-((3S,5S,7S)-adamantan-1-yl)acetamido)-3,3-dimethylbutanoyl)-N-((S)-1-cyclopentyl-3-(cyclopropylamino)-2,3-dioxopropyl)octahydrocyclopenta[c]pyrrole-1-carboxamide], the “enzymatic inhibition” value is reported as “comparable enzymatic inhibition and antiviral activity as Jun8861”. For `CC(C)[C@H](NC(=O)[C@@H]1[C@H]2CCC[C@H]2CN1C(=O)[C@@H](NC(=O)CC12CC3CC(CC(C3)C1)C2)C(C)(C)C)C(=O)C(=O)NC1CC1` [Jun11718, (1S,3aR,6aS)-2-((S)-2-(2-((3S,5S,7S)-adamantan-1-yl)acetamido)-3,3-dimethylbutanoyl)-N-((S)-1-(cyclopropylamino)-4-methyl-1,2-dioxopentan-3-yl)octahydrocyclopenta[c]pyrrole-1-carboxamide], the “enzymatic inhibition” value was “comparable enzymatic inhibition and antiviral activity as Jun8861”.

Each compound was assayed against T1, EV-D68 2A^pro (assay: Enzyme kinetic studies). Settings: from fitting of kinetic curves.
Format: biochemical
In the case of `CC(C)(C)[C@H](NC(=O)CC12CC3CC(CC(C3)C1)C2)C(=O)N1C[C@@H]2CCC[C@@H]2[C@H]1C(=O)N[C@H](C=O)Cc1ccc(F)cc1` [Jun11707, (1S,3aR,6aS)-2-((S)-2-(2-((3S,5S,7S)-adamantan-1-yl)acetamido)-3,3-dimethylbutanoyl)-N-((S)-1-(4-fluorophenyl)-3-oxopropan-2-yl)octahydrocyclopenta[c]pyrrole-1-carboxamide], the “Mode of inhibition of EV-D68 2A^pro” value is reported as “reversible binding”. `CC(C)(C)[C@H](NC(=O)CC12CC3CC(CC(C3)C1)C2)C(=O)N1C[C@@H]2CCC[C@@H]2[C@H]1C(=O)N[C@H](C(=O)C(=O)NC1CC1)C1CCCC1` [Jun11808, (1S,3aR,6aS)-2-((S)-2-(2-((3S,5S,7S)-adamantan-1-yl)acetamido)-3,3-dimethylbutanoyl)-N-((S)-1-cyclopentyl-3-(cyclopropylamino)-2,3-dioxopropyl)octahydrocyclopenta[c]pyrrole-1-carboxamide] was tested, and the “Mode of inhibition of EV-D68 2A^pro” value was “reversible binding”.

The compounds below were run on EV-D68 US/MO/14-18947 (assay: CPE assay with EV-D68 US/MO/14-18947 in R.D. cells). Settings: Enterovirus D, EVD68, RD, read-out: Antiviral EC50.
Format: cell-based, Enterovirus D68
In the case of `CCC[C@H](NC(=O)[C@@H]1[C@H]2CCC[C@H]2CN1C(=O)[C@@H](NC(=O)CC1CCCC1)C(C)(C)C)C(=O)C(=O)NC1CC1` [Jun971, (1S,3aR,6aS)-2-((S)-2-(2-cyclopentylacetamido)-3,3-dimethylbutanoyl)-N-((S)-1-(cyclopropylamino)-1,2-dioxohexan-3-yl)octahydrocyclopenta[c]pyrrole-1-carboxamide], the EC50 is reported as 160 to 750 nM.
